# Entries after “also recorded” stand apart in the source; their conditions may differ. Numbered stars: 1 amine (or outer) side, 2 acyl side, 3 side chain; on linkers, the order of the positions; unused ones are H or OH. Bridge positions count the residues as written; N and C are the ends. Square brackets hold non-standard residues; d marks the D form. Peptide text beside a SMILES is read from it. * marks the point of attachment. pTerphenylCO(4''-OnC5H11) = CCCCCOc1ccc(-c2ccc(-c3ccc(C(=O)*)cc3)cc2)cc1; Orn(4R-OH,5R-OH) = O=C([C@H](C[C@@H](O)[C@@H](O)N[*:3])N[*:1])[*:2]; hTyr(3S-OH,4S-OH) = N[C@H](C(=O)O)[C@H](O)[C@@H](O)c1ccc(O)cc1; Pro(3S-OH,4S-Me) = C[C@H]1CN[C@H](C(=O)O)[C@H]1O; Hyp = O=C(O)[C@@H]1C[C@@H](O)CN1
# Experiments:
# [1] = test system: Candida albicans 10231 biofilms; assay: Pre-formed biofilm treatment assay (microscopy, CFU, metabolic activity); type: cell-based; conditions: liposomes at 1.25 mg/mL or equivalent free drug; twenty-four hours
# Source text: (a) A set of representative differential interference contrast microscopy images of Candida albicans 10231 biofilms after twenty-four hours of treatment with 1×, 5×, and 10× anidulafungin loaded liposomes or equivalent free drug. (b) A bar graph showing Candida albicans 10231 biofilm colony-forming units (CFU) twenty-four hours after treatment with 1×, 5×, and 10× anidulafungin loaded liposomes or equivalent free drug (**p<0.01, unpaired two-tailed t-test, n=4). (c) A bar graph showing relative metabolic activity of Candida albicans 10231 biofilm cells twenty-four hours after treatment with 1×, 5×, and 10× anidulafungin loaded liposomes or equivalent free drug (*p<0.05, **p<0.01, ***p<0.001, ****p<0.0001, one-way ANOVA with Tukey's post hoc analysis, n=4). […] of untreated cells are shown. Negative controls lacking fungi were included in each study.
# The inventors compared anidulafungin-loaded liposomes with AmBisome®, a commercially-available liposomal amphotericin B, for activity against Candida albicans 10231 biofilms. AmBisome® localizes to the fungal cell wall. See, Adler-Moore & Proffitt, Journal of Antimicrobial Chemotherapy, 49(1), 21-30 (2002) and Walker et al., mBio, 9(1), e02383-17 (2018). The anidulafungin-loaded liposomes performed as AmBisome®, reducing fungal burden by five-fold after only twenty-four hours. See, FIG. 4. […]
# Candida albicans = conditions: cited from earlier work
# Candida parapsilosis = conditions: cited from earlier work
# [2] = cited from earlier work
# human cells = conditions: compared to many other antifungals; cited from earlier work
smiles,measurement,setting,value
"CCCCCOc1ccc(-c2ccc(-c3ccc(C(=O)N[C@H]4C[C@@H](O)[C@@H](O)NC(=O)[C@@H]5[C@@H](O)[C@@H](C)CN5C(=O)[C@H]([C@@H](C)O)NC(=O)[C@H]([C@H](O)[C@@H](O)c5ccc(O)cc5)NC(=O)[C@@H]5C[C@@H](O)CN5C(=O)[C@H]([C@@H](C)O)NC4=O)cc3)cc2)cc1 [Anidulafungin, 1-[(4R,5R) 4,5-dihydroxy-N2-[[4″-(pentyloxy)[1,1′:4′,1″-terphenyl]-4-yl]carbonyl]-L-ornithine] echinocandin B] ({pTerphenylCO(4''-OnC5H11)}-[Orn(4R-OH,5R-OH)]T[Hyp][hTyr(3S-OH,4S-OH)]T[Pro(3S-OH,4S-Me)]; lactam 1-C)",metabolic activity compared to untreated controls,[1],did not reduce metabolic activity
same,minimum inhibitory concentration (MIC),Candida albicans,0.25 µg/mL
same,minimum inhibitory concentration (MIC),Candida parapsilosis,4 µg/mL
same,solubility in ethanol,[2]; ethanol,slightly soluble
same,solubility in water,[2]; water,practically insoluble; also recorded: not freely soluble
same,toxicity to human cells,human cells,reduced toxicity to human cells

# Source: patent publication US11273124B2, “Antifungal nanoparticles for targeted treatment of fungal infections” (priority 2019, dated 2022)
